From patent US20200352854A1, “DEVICES AND METHODS FOR PREVENTING AND INHIBITING PERIODONTAL DISEASE” (Fixed Focus LLC, priority 2019, published 2020)

Assay: water solubility of complex carbohydrate agents
Assay type: physicochemical
Method: Specific solubilities are: dextran, 50 mg/ml; hydroxymethylcellulose, 10 mg/ml; cellulose, 0 mg/ml; oat beta glucan, 20 mg/ml.

## hydroxymethylcellulose
  solubility: 10 mg/mL

## oat beta glucan
  solubility: 20 mg/mL
